Read-outs that look alike come from different tables or passages of the source.
What was measured:
E. coli [1] = assay: Quasi-clinical trial on E. coli-infected AA broilers (drug-mixed feeding); settings: AA broilers
Procedure: (§1) Then, broilers were randomly and equally divided into five different groups and marked as five groups. […] Note that the daily drug-mixed feeding ratio (g drug/kg feed) was indicated for the first 4 h every day, and unmedicated feed then followed. In addition, E. coli strains for the infection of chicken was supplied as a freeze-dried powder. They were revived and cultured according to the standard procedures. The strain was inoculated into a liquid medium and cultured in a 37 °C incubator for 6–8 h. We detected the concentration of the bacterial liquid to be 2.8 × 10^8 CFU/mL as the pathogenic concentration. Finally, all of the chickens except the healthy control group were intramuscularly injected with 0.5 mL of pathogenic bacteria, and all chickens were fasted for 4 h. After successfully simulating the bacterial infection of the chickens, the drug-mixed feeding chickens were continuously fed for 6 d. During this time, we observed their behavioral habits, mortality, and recovery rates.

E. coli [2] = assay: Quasi-clinical trial on E. coli-infected 817 broilers (drug-mixed feeding); settings: 817 broilers
Procedure: as §1

[3] = Procedure: All tests were conducted in the animal experimental center of Guangxi Medical University. Preliminary experiments were needed before starting official tests. […] Groups of mice (n = 10 per group, half male and half female) received different doses of the tested compounds by gavage at the same single dose of drug solution, which was uniformed to be […] (drug solution)/10 g, but containing different concentration of tested drugs. […] We compared these mice with the control group in which the mice were not given drugs, according to the pre-experimental procedure. We closely observed the mice for 6 h after the gavage for signs of toxicity and mortality. As soon as death occurred among the maximum-dose group, we conducted an autopsy and took samples from the main organs for histopathological examination. In addition, we monitored all of the tested mice for 2 weeks to record their weight and mortality.
[4] = Pharmacokinetic study in plasma after oral administration (HPLC-MS); settings: SD rats, plasma, EFX 10 mg/kg, EFX-Ca 12 mg/kg
[5] = tested on: H2O2-induced ROS production; assay: H2O2-induced oxidative stress model in zebrafish (DCFH-DA); settings: 48 h pre-treatment, H2O2 1.0 mM 4 h, H2O2-induced 17,250, control 590
[6] = tested on: wild type AB strain zebrafish; settings: 30 embryos per well
Procedure: Zebrafish were incubated and grown in the Joint Laboratory established by Shandong Rui’ying Pharmaceutical Group (Heze, China) and China Pharmaceutical University. Both the Wild-type AB (Danio rerio) and Tg(mpx:eGFP) zebrafish strains were maintained under the guidance of the standard procedures of The Zebrafish Book. […] Then the zebrafish were allowed to naturally mate and spawn the next morning. The normally born embryos were then collected after 1 h and kept in an incubating system at 28 °C. The 6 hpf (hour post fertilization) embryos were transferred into a 6-well plate exposed to 5 mL of egg water, in which 30 embryos were in each well.

[7] = tested on: neutrophil cluster aggregation; assay: CuSO4-induced inflammation model in Tg(mpx:eGFP) zebrafish; settings: 10 μM CuSO4 40 min, Tg(mpx:eGFP) 3 dpf
[8] = 0.01 μM medicated bath, 120 hpf

CCN1CCN(c2cc3c(cc2F)c(=O)c(C(=O)O)cn3C2CC2)CC1 [EFX, enrofloxacin, reference compound]
Average Final Weight (E. coli [1]; EFX single dosage 11 g + 1.5 kg feed): 1880 ± 113 g
Average Weight Gain (E. coli [1]; EFX single dosage 11 g + 1.5 kg feed, Table 7): 380
Average Increment of Weight (E. coli [1]; EFX single dosage 11 g + 1.5 kg feed, Table 8): 250 g
Cure Rate (%) (E. coli [1]; EFX single dosage 11 g drug (5% solution) + 1.5 kg feed/4 h, 6 d): 62%
Survival Number (E. coli [1]; EFX single dosage 11 g drug (5% solution) + 1.5 kg feed/4 h, 6 d, 50 per group): 31
Average Final Weight (E. coli [2]; EFX single dosage 11 g + 0.75 kg feed): 1030 ± 74 g
Average Weight Gain (E. coli [2]; EFX single dosage 11 g + 0.75 kg feed, Table 7): 100
Average Increment of Weight (E. coli [2]; EFX single dosage 11 g + 0.75 kg feed, Table 8): 140 g
Cure Rate (%) (E. coli [2]; EFX single dosage 11 g drug (5% solution) + 0.75 kg feed/4 h, 6 d): 64%
Survival Number (E. coli [2]; EFX single dosage 11 g drug (5% solution) + 0.75 kg feed/4 h, 6 d, 50 per group): 32
Body Weight (g, x¯ ± SD) ([3]; 2000 mg/kg single gavage, Day-0): 18.35 ± 1.87 g
Body Weight (g, x¯ ± SD) ([3]; 2000 mg/kg single gavage, Day-1): 20.21 ± 2.06 g
Body Weight (g, x¯ ± SD) ([3]; 2000 mg/kg single gavage, Day-4): 25.19 ± 1.81 g
Body Weight (g, x¯ ± SD) ([3]; 2000 mg/kg single gavage, Day-7): 28.89 ± 1.99 g
Body Weight (g, x¯ ± SD) ([3]; 2000 mg/kg single gavage, Day-14): 36.93 ± 3.07 g
Body Weight (g, x¯ ± SD) ([3]; 3031 mg/kg single gavage, Day-0): 18.40 ± 1.78 g
Body Weight (g, x¯ ± SD) ([3]; 3031 mg/kg single gavage, Day-1): 19.20 ± 2.18 g
Body Weight (g, x¯ ± SD) ([3]; 3031 mg/kg single gavage, Day-4): 24.83 ± 3.08 g
Body Weight (g, x¯ ± SD) ([3]; 3031 mg/kg single gavage, Day-7): 29.17 ± 2.51 g
Body Weight (g, x¯ ± SD) ([3]; 3031 mg/kg single gavage, Day-14): 33.20 ± 4.46 g
Body Weight (g, x¯ ± SD) ([3]; 4595 mg/kg single gavage, Day-0): 18.67 ± 1.05 g
Body Weight (g, x¯ ± SD) ([3]; 4595 mg/kg single gavage, Day-1): 19.14 ± 0.96 g
Body Weight (g, x¯ ± SD) ([3]; 4595 mg/kg single gavage, Day-4): 23.54 ± 1.44 g
Body Weight (g, x¯ ± SD) ([3]; 4595 mg/kg single gavage, Day-7): 28.20 ± 1.52 g
Body Weight (g, x¯ ± SD) ([3]; 4595 mg/kg single gavage, Day-14): 33.96 ± 2.53 g
Body Weight (g, x¯ ± SD) ([3]; 6964 mg/kg single gavage, Day-0): 18.59 ± 1.34 g
Body Weight (g, x¯ ± SD) ([3]; 6964 mg/kg single gavage, Day-1): 19.68 ± 1.06 g
Body Weight (g, x¯ ± SD) ([3]; 6964 mg/kg single gavage, Day-4): 23.85 ± 1.88 g
Body Weight (g, x¯ ± SD) ([3]; 6964 mg/kg single gavage, Day-7): 27.98 ± 3.40 g
Body Weight (g, x¯ ± SD) ([3]; 6964 mg/kg single gavage, Day-14): 36.13 ± 5.35 g
Body Weight (g, x¯ ± SD) ([3]; 16,000 mg/kg single gavage, Day-0): 18.86 ± 1.03 g
Body Weight (g, x¯ ± SD) ([3]; 16,000 mg/kg single gavage, Day-1): 18.55 ± 1.70 g
Body Weight (g, x¯ ± SD) ([3]; 16,000 mg/kg single gavage, Day-7): 24.35 ± 2.63 g
Body Weight (g, x¯ ± SD) ([3]; 16,000 mg/kg single gavage, Day-14): 33.20 ± 4.00 g
Ke [4]: 0.28
t 1/2β [4]: 2.43 H
Average IOD (integrated optical density) of green fluorescence ([5]; 0.01 μM): 970 a.u.
Average IOD (integrated optical density) of green fluorescence ([5]; 0.1 μM): 772 a.u.
Average IOD (integrated optical density) of green fluorescence ([5]; 1 μM): 848 a.u.
statistical death of the tested zebrafish ([6]; 0.01 μM medicated bath, 24 hpf): 6
statistical survival of the tested zebrafish ([6]; 0.01 μM medicated bath, 24 hpf): 24
statistical death of the tested zebrafish ([6]; 0.01 μM medicated bath, 48 hpf): 6
statistical survival of the tested zebrafish ([6]; 0.01 μM medicated bath, 48 hpf): 24
statistical death of the tested zebrafish ([6]; 0.01 μM medicated bath, 72 hpf): 6
statistical survival of the tested zebrafish ([6]; 0.01 μM medicated bath, 72 hpf): 24
statistical death of the tested zebrafish ([6]; 0.01 μM medicated bath, 96 hpf): 6
statistical survival of the tested zebrafish ([6]; 0.01 μM medicated bath, 96 hpf): 24
statistical death of the tested zebrafish [6, 8]: 6
statistical survival of the tested zebrafish [6, 8]: 24
statistical death of the tested zebrafish ([6]; 0.1 μM medicated bath, 24 hpf): 4
statistical survival of the tested zebrafish ([6]; 0.1 μM medicated bath, 24 hpf): 26
statistical death of the tested zebrafish ([6]; 0.1 μM medicated bath, 48 hpf): 4
statistical survival of the tested zebrafish ([6]; 0.1 μM medicated bath, 48 hpf): 26
statistical death of the tested zebrafish ([6]; 0.1 μM medicated bath, 72 hpf): 4
statistical survival of the tested zebrafish ([6]; 0.1 μM medicated bath, 72 hpf): 26
statistical death of the tested zebrafish ([6]; 0.1 μM medicated bath, 96 hpf): 4
statistical survival of the tested zebrafish ([6]; 0.1 μM medicated bath, 96 hpf): 26
statistical death of the tested zebrafish ([6]; 0.1 μM medicated bath, 120 hpf): 4
statistical survival of the tested zebrafish ([6]; 0.1 μM medicated bath, 120 hpf): 26
statistical death of the tested zebrafish ([6]; 1 μM medicated bath, 24 hpf): 2
statistical survival of the tested zebrafish ([6]; 1 μM medicated bath, 24 hpf): 28
statistical death of the tested zebrafish ([6]; 1 μM medicated bath, 48 hpf): 2
statistical survival of the tested zebrafish ([6]; 1 μM medicated bath, 48 hpf): 28
statistical death of the tested zebrafish ([6]; 1 μM medicated bath, 72 hpf): 2
statistical survival of the tested zebrafish ([6]; 1 μM medicated bath, 72 hpf): 28
statistical death of the tested zebrafish ([6]; 1 μM medicated bath, 96 hpf): 2
statistical survival of the tested zebrafish ([6]; 1 μM medicated bath, 96 hpf): 28
statistical death of the tested zebrafish ([6]; 1 μM medicated bath, 120 hpf): 2
statistical survival of the tested zebrafish ([6]; 1 μM medicated bath, 120 hpf): 28
statistical death of the tested zebrafish ([6]; 10 μM medicated bath, 24 hpf): 2
statistical survival of the tested zebrafish ([6]; 10 μM medicated bath, 24 hpf): 28
statistical death of the tested zebrafish ([6]; 10 μM medicated bath, 48 hpf): 2
statistical survival of the tested zebrafish ([6]; 10 μM medicated bath, 48 hpf): 28
statistical death of the tested zebrafish ([6]; 10 μM medicated bath, 72 hpf): 2
statistical survival of the tested zebrafish ([6]; 10 μM medicated bath, 72 hpf): 28
statistical death of the tested zebrafish ([6]; 10 μM medicated bath, 96 hpf): 2
statistical survival of the tested zebrafish ([6]; 10 μM medicated bath, 96 hpf): 28
statistical death of the tested zebrafish ([6]; 10 μM medicated bath, 120 hpf): 2
statistical survival of the tested zebrafish ([6]; 10 μM medicated bath, 120 hpf): 28
statistical death of the tested zebrafish ([6]; 20 μM medicated bath, 24 hpf): 4
statistical survival of the tested zebrafish ([6]; 20 μM medicated bath, 24 hpf): 26
statistical death of the tested zebrafish ([6]; 20 μM medicated bath, 48 hpf): 4
statistical survival of the tested zebrafish ([6]; 20 μM medicated bath, 48 hpf): 26
statistical death of the tested zebrafish ([6]; 20 μM medicated bath, 72 hpf): 4
statistical survival of the tested zebrafish ([6]; 20 μM medicated bath, 72 hpf): 26
statistical death of the tested zebrafish ([6]; 20 μM medicated bath, 96 hpf): 4
statistical survival of the tested zebrafish ([6]; 20 μM medicated bath, 96 hpf): 26
statistical death of the tested zebrafish ([6]; 20 μM medicated bath, 120 hpf): 4
statistical survival of the tested zebrafish ([6]; 20 μM medicated bath, 120 hpf): 26
CuSO4-induced neutrophil aggregation ([7]; 0.1 μM pre-incubation 1 h): still maintained obvious clustering status
CuSO4-induced neutrophil aggregation ([7]; 1 μM pre-incubation 1 h): partial aggregations of the neutrophils could be observed

Source: paper PMC8878047 (Pharmaceutics, 2022)
